{"source": "the OligoGym collection", "molecular_target": "HSD17B13", "details": "ASO, HepaRG", "note": "After the bases stand the sugars from the 5' end (letter, count) and the backbone: PS all phosphorothioate, else s phosphorothioate and o phosphodiester by linkage. Methylation of C is not given here. e = 2'-O-(2-methoxyethyl) (MOE); k = constrained ethyl (cEt); d = 2'-deoxy (DNA); m = 2'-O-methyl"}
{"sequence": "AATACATTAGCAAGCT (sugars k3 d10 k3, PS)", "values": [{"measurement": "target mRNA inhibition", "setting": "1 µM", "value": 45, "unit": "%"}]}
{"sequence": "AGGTTGAGATAAAGCT (sugars k3 d10 k3, PS)", "values": [{"measurement": "target mRNA inhibition", "setting": "0.02 µM", "value": 20, "unit": "%"}, {"measurement": "target mRNA inhibition", "setting": "0.078 µM", "value": 27, "unit": "%"}, {"measurement": "target mRNA inhibition", "setting": "0.313 µM", "value": 40, "unit": "%"}, {"measurement": "target mRNA inhibition", "setting": "1 µM", "value": 74, "unit": "%"}, {"measurement": "target mRNA inhibition", "setting": "1.25 µM", "value": 69, "unit": "%"}, {"measurement": "target mRNA inhibition", "setting": "5 µM", "value": 86, "unit": "%"}]}
{"sequence": "TTTCATGGCCTTACCA (sugars k3 d10 k3, PS)", "values": [{"measurement": "target mRNA inhibition", "setting": "1 µM", "value": 52, "unit": "%"}]}
{"sequence": "ATTAAGATGTCCAGGC (sugars k3 d10 k3, PS)", "values": [{"measurement": "target mRNA inhibition", "setting": "1 µM", "value": 31, "unit": "%"}]}
{"sequence": "CCTCCTTATTTGTTAG (sugars k3 d10 k3, PS)", "values": [{"measurement": "target mRNA inhibition", "setting": "1 µM", "value": 41, "unit": "%"}]}
{"sequence": "GTAAAGGCTGGGTGAG (sugars k3 d10 k3, PS)", "values": [{"measurement": "target mRNA inhibition", "setting": "1 µM", "value": 41, "unit": "%"}]}
{"sequence": "AGTCATTTTTAATACG (sugars k3 d10 k3, PS)", "values": [{"measurement": "target mRNA inhibition", "setting": "1 µM", "value": 13, "unit": "%"}]}
{"sequence": "TGTGAGAGGATAGTGA (sugars k3 d10 k3, PS)", "values": [{"measurement": "target mRNA inhibition", "setting": "1 µM", "value": 50, "unit": "%"}]}
{"sequence": "ACAAGTGACAGCATTG (sugars k3 d10 k3, PS)", "values": [{"measurement": "target mRNA inhibition", "setting": "1 µM", "value": 44, "unit": "%"}]}
{"sequence": "ATACTGTCCCAGCATT (sugars k3 d10 k3, PS)", "values": [{"measurement": "target mRNA inhibition", "setting": "1 µM", "value": 32, "unit": "%"}]}
{"sequence": "TTTCTAAATTACTCCG (sugars k3 d10 k3, PS)", "values": [{"measurement": "target mRNA inhibition", "setting": "1 µM", "value": 54, "unit": "%"}]}
{"sequence": "CACGAAGCCTGAATGC (sugars k3 d10 k3, PS)", "values": [{"measurement": "target mRNA inhibition", "setting": "1 µM", "value": 24, "unit": "%"}]}
{"sequence": "CGGTCACCTTTCATAA (sugars k3 d1 m1 d8 k3, PS)", "values": [{"measurement": "target mRNA inhibition", "setting": "1 µM", "value": 42, "unit": "%"}]}
{"sequence": "TCAGTCCTTGTGTAGT (sugars k3 d10 k3, PS)", "values": [{"measurement": "target mRNA inhibition", "setting": "1 µM", "value": 72, "unit": "%"}]}
{"sequence": "AACTACTTCAGTTAGC (sugars k3 d10 k3, PS)", "values": [{"measurement": "target mRNA inhibition", "setting": "1 µM", "value": 53, "unit": "%"}]}
{"sequence": "GGACCAAGGATATATG (sugars k3 d10 k3, PS)", "values": [{"measurement": "target mRNA inhibition", "setting": "1 µM", "value": 56, "unit": "%"}]}
{"sequence": "TAAGTGTAAGAGACAT (sugars k3 d10 k3, PS)", "values": [{"measurement": "target mRNA inhibition", "setting": "1 µM", "value": 63, "unit": "%"}]}
{"sequence": "CATCTAACTAACCTGA (sugars k3 d10 k3, PS)", "values": [{"measurement": "target mRNA inhibition", "setting": "1 µM", "value": 0, "unit": "%"}]}
{"sequence": "CTTGTGTAGTCCTAGG (sugars k3 d10 k3, PS)", "values": [{"measurement": "target mRNA inhibition", "setting": "0.02 µM", "value": 7, "unit": "%"}, {"measurement": "target mRNA inhibition", "setting": "0.078 µM", "value": 13, "unit": "%"}, {"measurement": "target mRNA inhibition", "setting": "0.313 µM", "value": 39, "unit": "%"}, {"measurement": "target mRNA inhibition", "setting": "1 µM", "value": 71, "unit": "%"}, {"measurement": "target mRNA inhibition", "setting": "1.25 µM", "value": 70, "unit": "%"}, {"measurement": "target mRNA inhibition", "setting": "5 µM", "value": 87, "unit": "%"}]}
{"sequence": "AGGCUGTAAGAGTCAG (sugars k3 d1 m1 d8 k3, PS)", "values": [{"measurement": "target mRNA inhibition", "setting": "1 µM", "value": 52, "unit": "%"}]}
{"sequence": "GCAGATTATTATGTGA (sugars k3 d10 k3, PS)", "values": [{"measurement": "target mRNA inhibition", "setting": "1 µM", "value": 59, "unit": "%"}]}
{"sequence": "TATGTAATAGCCAGTA (sugars kkdddddddddkekek, PS)", "values": [{"measurement": "target mRNA inhibition", "setting": "0.02 µM", "value": 9, "unit": "%"}, {"measurement": "target mRNA inhibition", "setting": "0.078 µM", "value": 33, "unit": "%"}, {"measurement": "target mRNA inhibition", "setting": "0.313 µM", "value": 58, "unit": "%"}, {"measurement": "target mRNA inhibition", "setting": "1 µM", "value": 78, "unit": "%"}, {"measurement": "target mRNA inhibition", "setting": "1.25 µM", "value": 67, "unit": "%"}, {"measurement": "target mRNA inhibition", "setting": "5 µM", "value": 85, "unit": "%"}]}
{"sequence": "AGATCCCGTTCTTGCC (sugars k3 d10 k3, PS)", "values": [{"measurement": "target mRNA inhibition", "setting": "0.02 µM", "value": 0, "unit": "%"}, {"measurement": "target mRNA inhibition", "setting": "0.078 µM", "value": 20, "unit": "%"}, {"measurement": "target mRNA inhibition", "setting": "0.313 µM", "value": 47, "unit": "%"}, {"measurement": "target mRNA inhibition", "setting": "1 µM", "value": 68, "unit": "%"}, {"measurement": "target mRNA inhibition", "setting": "1.25 µM", "value": 72, "unit": "%"}, {"measurement": "target mRNA inhibition", "setting": "5 µM", "value": 76, "unit": "%"}]}
{"sequence": "GCTTATGAAGTTAGTA (sugars k3 d10 k3, PS)", "values": [{"measurement": "target mRNA inhibition", "setting": "0.02 µM", "value": 0, "unit": "%"}, {"measurement": "target mRNA inhibition", "setting": "0.078 µM", "value": 17, "unit": "%"}, {"measurement": "target mRNA inhibition", "setting": "0.313 µM", "value": 27, "unit": "%"}, {"measurement": "target mRNA inhibition", "setting": "1 µM", "value": 67, "unit": "%"}, {"measurement": "target mRNA inhibition", "setting": "1.25 µM", "value": 66, "unit": "%"}, {"measurement": "target mRNA inhibition", "setting": "5 µM", "value": 86, "unit": "%"}]}
{"sequence": "CAGTACAGTTCCTTTT (sugars k3 d10 k3, PS)", "values": [{"measurement": "target mRNA inhibition", "setting": "1 µM", "value": 43, "unit": "%"}]}
{"sequence": "GACAATGGTTGATAGT (sugars k3 d10 k3, PS)", "values": [{"measurement": "target mRNA inhibition", "setting": "1 µM", "value": 67, "unit": "%"}]}
{"sequence": "CATATGTGAAGAGCTG (sugars k3 d10 k3, PS)", "values": [{"measurement": "target mRNA inhibition", "setting": "1 µM", "value": 25, "unit": "%"}]}
{"sequence": "TGACATAGACATGTGT (sugars k3 d10 k3, PS)", "values": [{"measurement": "target mRNA inhibition", "setting": "1 µM", "value": 42, "unit": "%"}]}
{"sequence": "TCATTTAGAATACGCT (sugars k3 d10 k3, PS)", "values": [{"measurement": "target mRNA inhibition", "setting": "1 µM", "value": 20, "unit": "%"}]}
{"sequence": "AGAGTCGGTCACCTTT (sugars k3 d9 k3 e1, PS)", "values": [{"measurement": "target mRNA inhibition", "setting": "1 µM", "value": 66, "unit": "%"}]}
{"sequence": "TGATGTAGTGGGAGTC (sugars k3 d1 m1 d8 k3, PS)", "values": [{"measurement": "target mRNA inhibition", "setting": "1 µM", "value": 43, "unit": "%"}]}
{"sequence": "CATAUGTGAAGAGCTG (sugars k3 d1 m1 d8 k3, PS)", "values": [{"measurement": "target mRNA inhibition", "setting": "1 µM", "value": 39, "unit": "%"}]}
{"sequence": "GTTTAGCAATTTAGCA (sugars k3 d10 k3, PS)", "values": [{"measurement": "target mRNA inhibition", "setting": "1 µM", "value": 50, "unit": "%"}]}
{"sequence": "ATGGCTACAGATTGGA (sugars k3 d10 k3, PS)", "values": [{"measurement": "target mRNA inhibition", "setting": "1 µM", "value": 72, "unit": "%"}]}
